The values below come from PubChem BioAssay (NCI).

What all share (assay): NCI tumour cell line growth inhibition, 48 h
In experiment [1] the test system is NCI-H522 lung.
Experiment [2] relates to SNB-75 CNS.
In experiment [3] the test system is NCI-H23 lung.
Experiment [4] concerns M14 melanoma.
In experiment [5] the test system is HCC-2998 colon.
In experiment [6] the test system is UACC-257 melanoma.
The test system of experiment [7] is NCI-H226 lung.
The subject of experiment [8] is K-562 leukemia.
For experiment [9], the system named is PC-3 prostate.
For experiment [10], the system named is HOP-92 NSCLC.
Experiment [11] relates to NCI/ADR-RES ovarian.
The test system of experiment [12] is BT-549 breast.

The structures appear in SMILES notation. Values joined by “and” are separate entries in the source; they are usually repeats but may differ in a detail not shown here. Equal values may be shown once.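 In this assay, cells in 96-well plates receive the compound at five concentrations for 48 hours. Endpoints are linearly interpolated between the surrounding concentrations. TGI is the concentration that stops growth completely.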 Some results are limits rather than exact numbers.

As for `CS(=O)(=O)c1c(N)c2nc(Cl)cn2c2nc3ccccc3nc12`, the TGI in [1], in experiment [2], in experiment [3], in experiment [4], in [5] and in experiment [6] was above 100 µM in each case. The TGI in [7] and in experiment [8] was above 100 µM each time.

As to `CCCCOC(=O)NC(Nc1cccc(C(F)(F)F)c1)(C(F)(F)F)C(F)(F)F`, the TGI was above 100 µM in experiment [1]; above 100 µM in experiment [9]; 64.7 µM in experiment [10]; above 100 µM in experiment [11]; above 100 µM in [2]; above 100 µM in [3]. Moreover, the TGI in experiment [4], in experiment [6], in experiment [7] and in [8] was above 100 µM in each case.

For the compound `CN(CCO)c1nc(N)cc(=O)[nH]1`, the TGI in experiment [1], in experiment [10], in experiment [2], in experiment [3], in [4] and in experiment [5] was above 100 µM throughout. The TGI in experiment [6], in experiment [7] and in experiment [8] was above 100 µM throughout.

For the compound `CN(C)CC1COC2Cc3ccccc3C1O2` (centres undefined), the TGI in [1] is above 100 µM; in experiment [9], above 100 µM; in experiment [10], above 100 µM; in experiment [11], above 100 µM; in [2] it was 75.7 µM and 94.5 µM; in experiment [3], above 100 µM. In addition, the TGI in experiment [4], in experiment [5], in experiment [6], in experiment [7] and in experiment [8] was above 100 µM each time.

On to `O=C1NC(N2CCCCC2)=N/C1=C\c1cccs1`, for which the TGI in experiment [1], in experiment [9], in experiment [10], in experiment [11], in experiment [3] and in experiment [4] was above 100 µM each time. The TGI in experiment [5], in experiment [6], in [7] and in experiment [12] was above 100 µM throughout.

For `CCOC(=O)c1c(C)cc(=O)n2c1[nH]c1ccccc12`, the TGI in [9], in experiment [10], in experiment [11], in experiment [3], in experiment [4] and in [5] was above 100 µM throughout. Also, the TGI in [6], in [7], in experiment [12] and in experiment [8] was above 100 µM each time.

In the case of `Cc1cc(S(=O)(=O)/N=C(\[N-]S(=O)(=O)c2ccc(Cl)cc2)[n+]2ccc(N(C)C)cc2)c(S)cc1Cl`, the TGI in experiment [1], in experiment [9], in [11], in [3], in [4] and in experiment [5] was above 100 µM in each case. The TGI in experiment [6], in [7] and in experiment [8] was above 100 µM throughout.

`C/C=C\C(CC(=O)NCCC1CN(S(=O)(=O)C(F)(F)F)c2ccccc21)CC(=O)OC` (centres undefined): the TGI in experiment [1] is 52 µM; in experiment [9], above 100 µM; in [10], above 100 µM; in experiment [11], above 100 µM; in experiment [3], above 100 µM; in experiment [4], above 100 µM. In addition, the TGI was above 100 µM in experiment [5], above 100 µM in experiment [6], 67.1 µM in experiment [12] and above 100 µM in [8].

As for `CN1CCCCC(C#N)(c2ccccc2)CC1` (centres undefined), the TGI in [9], in experiment [10], in experiment [11], in [2], in experiment [3] and in [4] was above 100 µM throughout. Moreover, the TGI in experiment [5], in experiment [6] and in experiment [8] was above 100 µM each time.

For the compound `CC=CCOc1cc(NC(=S)OC(C)C)ccc1Cl` (mixture of isomers), the TGI in experiment [1] is 28 µM; in [9] it was 34.3 µM; in [10], 24.9 µM; in [11], 31.9 µM; in experiment [3] it was 35.1 µM; in [4], 63.3 µM. The TGI in [5] is 30.3 µM; in experiment [6], 46.5 µM; in experiment [7], 33 µM; in [12], 38.6 µM.

For `O=C1N2CCc3c([nH]c4ccccc34)C23CC2CCCCC12S3` (centres undefined), the TGI in [1], in experiment [9], in [10], in experiment [11], in [3] and in experiment [4] was above 100 µM in each case. In addition, the TGI was 73.1 µM in [6], above 100 µM in experiment [7], above 100 µM in experiment [12] and above 100 µM in experiment [8].

Regarding `CCCC(=O)O[C@H]1C=C2C[C@@]34SS[C@]5(CC6=C[C@H](OC(C)=O)[C@@H]7O[C@@H]7[C@H]6N5C3=O)C(=O)N4[C@@H]2[C@H]2O[C@H]21`, the TGI in [9] was 0.0611 µM; in [10] it was 0.0941 µM; in experiment [11], 0.442 µM; in experiment [2] it was 0.331 µM; in experiment [3] it was 0.291 µM; in [4], 0.0545 µM. The TGI turned out to be 0.0194 µM in [5], 0.0746 µM in experiment [6], 1.77 µM in experiment [7] and 5.83 µM in [8].

Consider `O=C(Cc1csc(N=Nc2c(O)[nH]c3ccccc23)n1)Nc1ccccc1`, for which the TGI in experiment [10] is above 100 µM; in [11], 41 µM; in experiment [2], 86.9 µM; in [3] it was above 100 µM; in experiment [4] it was above 100 µM; in experiment [5] it was 94.3 µM. The values for the TGI in experiment [6] and in experiment [12] were 87.7 µM and above 100 µM, respectively.
